Source: article PMC3493529, “Molecular and Pharmacological Characterization of Serotonin 5-HT2α and 5-HT7 Receptors in the Salivary Glands of the Blowfly Calliphora vicina” (PLoS ONE, 2012)
Read-outs that look alike come from different tables or passages of the source.

Assays:
[1] = molecular target: T1, Cv5-HT7 (Calliphora vicina, UniProt I7IA71); assay: Direct cAMP quantification (cAMP-Screen System) in Cv5-HT7-expressing cells; format: cell-based; settings: 1 µM biogenic amine; 100 µM IBMX
Procedure: The Cv5-HT7-expressing cell line was also used to determine receptor-induced cAMP production in response to various biogenic amines directly. Assays to quantify cAMP amounts were performed as described earlier by using the cAMP-Screen System (Applied Biosystems, Darmstadt, Germany).

[2] = molecular target: T2, Cv5-HT2α (Calliphora vicina, UniProt I7JA47); assay: Ca2+ signals (Fluo-4) in Cv5-HT2α-expressing HEK 293 cells, agonists; format: cell-based; settings: for effect on [Ca2+]i in Cv5-HT2α-expressing cells: 1 µM biogenic amine, non-transfected cells as control; for EC50 / Cv5-HT2α EC50 / Cv5-HT2α log EC50: Cv5-HT2α-expressing HEK 293 cells; for Cv5-HT2α EC50 / Cv5-HT2α log EC50: Ca2+-dependent Fluo-4 signal
T2 sequence (I7JA47 entry or part of it): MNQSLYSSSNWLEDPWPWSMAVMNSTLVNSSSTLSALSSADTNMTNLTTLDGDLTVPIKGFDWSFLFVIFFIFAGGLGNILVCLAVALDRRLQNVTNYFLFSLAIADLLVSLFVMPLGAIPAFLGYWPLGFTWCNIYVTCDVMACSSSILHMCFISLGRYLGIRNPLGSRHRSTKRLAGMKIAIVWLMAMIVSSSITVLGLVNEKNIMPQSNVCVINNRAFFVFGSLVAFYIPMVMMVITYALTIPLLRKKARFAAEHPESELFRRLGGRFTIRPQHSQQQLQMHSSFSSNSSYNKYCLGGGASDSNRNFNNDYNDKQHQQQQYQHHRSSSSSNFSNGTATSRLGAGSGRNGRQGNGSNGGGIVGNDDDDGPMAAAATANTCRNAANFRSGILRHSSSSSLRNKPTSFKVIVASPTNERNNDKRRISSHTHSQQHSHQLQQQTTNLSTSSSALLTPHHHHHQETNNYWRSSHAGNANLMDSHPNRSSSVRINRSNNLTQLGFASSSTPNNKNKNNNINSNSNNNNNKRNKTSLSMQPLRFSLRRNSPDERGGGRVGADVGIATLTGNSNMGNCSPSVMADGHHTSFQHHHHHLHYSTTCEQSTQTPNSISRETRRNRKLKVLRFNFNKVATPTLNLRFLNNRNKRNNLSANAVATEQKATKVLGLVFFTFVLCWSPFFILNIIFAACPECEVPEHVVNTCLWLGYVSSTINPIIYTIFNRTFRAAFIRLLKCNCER
Procedure: (§1) We applied a previously established protocol to generate cell lines that constitutively expressed either Cv5-HT2α or Cv5-HT7. […] (flpTM cells, provided by Sibion biosciences GmbH, Jülich, Germany). Approximately 8 µg of the respective expression vectors were introduced into ∼4×10^5 cells by a modified calcium-phosphate method. Stably transfected cells were selected in the presence of the antibiotics Blasticidin (0.1 mg/ml; Cv5-HT2α) or G418 (0.8 mg/ml; Cv5-HT7). Expression of Cv5-HT2α and Cv5-HT7 was monitored by Western blotting with commercially available anti-His antibodies (anti-6x His Epitope Tag; Rockland Immunochemicals Inc, Gilbertsville, USA) and anti-HA antibodies (clone 3F10; Roche, Penzberg, Germany), respectively.
(§2) The ability of Cv5-HT2α to induce Ca^2+ signals in the transfected cell line was measured with the Ca^2+-sensitive dye Fluo-4. Similarly, Cv5-HT7-induced cAMP production was indirectly monitored by the cAMP-dependent activation of the cyclic nucleotide-gated ion channel in flpTM cells (see above). The cyclic nucleotide-gated ion channel is permeable to Ca^2+ ions and thus an increase in [cAMP]i leads to an influx of Ca^2+ ions, which can be detected with Fluo-4. […] After 1 h, the loading solution was substituted for dye-free ES. To inhibit cAMP hydrolysis in Cv5-HT7-expressing cells, ES containing 100 µM isobutylmethylxanthine (IBMX) was used. Plates were transferred into a fluorescence reader (FLUOstar Omega; bmg, Offenburg, Germany) and Fluo-4 fluorescence was monitored. […] Fluorescence emission was detected at 520 nm. Once the basal fluorescence in each well had reached a stable value, various concentrations of the respective ligands were added. The resulting changes in Fluo-4 fluorescence were recorded automatically.

[3] = molecular target: T1, Cv5-HT7; assay: cAMP-dependent CNG channel Ca2+ influx (Fluo-4) in Cv5-HT7-expressing flpTM cells, agonists; format: cell-based
Procedure: as §1, §2

[4] = tested on: blowfly salivary glands; design: method as in PMID 6272697, PMID 4339528, PMID 16621952; settings: cAMP formation, electrical response, luminal acidification and fluid secretion; read-out: 5-HT concentration eliciting the half-maximal effect in blowfly salivary glands; cited from earlier work
[5] = tested on: salivary glands; design: method as in PMID 9097929; settings: read-out: EC50 of Ca2+ responses in salivary glands; cited from earlier work
[6] = tested on: blowfly salivary glands; assay: Transepithelial potential (TEP) of blowfly salivary glands, agonists; format: cell-based, Calliphora vicina; design: key to negative TEP phase / positive TEP phase: ++: high amplitude; +: low amplitude; -: no apparent effect; -/+: variable effect
Procedure: The abdominal portions of salivary glands were dissected in physiological saline (in mM: 128 NaCl, 10 KCl, 2 CaCl2, 2.7 MgCl2, 3 Na-glutamate, 2.8 maleic acid, 10 D-glucose and 10 Tris-HCl, pH 7.2). Measurements of transepithelial potential (TEP) were performed by the oil-gap method with a DPA-2F differential amplifier (npi Electronic Instruments, Tamm, Germany). Data were sampled and digitized at 1 Hz (KUSB-3102 module for AD-conversion; Keithley, Germering, Germany) by using the software TestPoint (v4.1; Capital Equipment Corp, Billerica, MA, USA) for data acquisition and storage.

[7] = molecular target: T1, Cv5-HT7; assay: Inhibition of 5-HT-induced Fluo-4 signals in Cv5-HT7-expressing cells; format: cell-based; settings: in the presence of 6 nM 5-HT
Procedure: as §1, with “Cv5-HT7. For Cv5-HT2α expression, human embryonic kidney cells (HEK 293; ECACC, Salisbury, UK) were chosen.” for “Cv5-HT7.”
(§3) The ability of Cv5-HT2α to induce Ca^2+ signals in the transfected cell line was measured with the Ca^2+-sensitive dye Fluo-4. Similarly, Cv5-HT7-induced cAMP production was indirectly monitored by the cAMP-dependent activation of the cyclic nucleotide-gated ion channel in flpTM cells (see above). The cyclic nucleotide-gated ion channel is permeable to Ca^2+ ions and thus an increase in [cAMP]i leads to an influx of Ca^2+ ions, which can be detected with Fluo-4. Cells were grown in 96-well plates to a density of ∼3×10^4 (Cv5-HT2α) or 1.5×10^4 (Cv5-HT7) and then incubated in extracellular solution (ES in mM: 120 NaCl, 5 KCl, 2 CaCl2, 2 MgCl2, 10 glucose, 10 HEPES, pH 7.4) containing 3 mM probenecid, 0.02% (w/v) Pluronic® F-127 (Sigma) and 2 µM Fluo-4AM (Invitrogen). After 1 h, the loading solution was substituted for dye-free ES. To inhibit cAMP hydrolysis in Cv5-HT7-expressing cells, ES containing 100 µM isobutylmethylxanthine (IBMX) was used. Plates were transferred into a fluorescence reader (FLUOstar Omega; bmg, Offenburg, Germany) and Fluo-4 fluorescence was monitored. The excitation wavelength was 485 nm. Fluorescence emission was detected at 520 nm. Once the basal fluorescence in each well had reached a stable value, various concentrations of the respective ligands were added. The resulting changes in Fluo-4 fluorescence were recorded automatically.
(§4) Changes in Ca^2+-dependent Fluo-4 signals were registered automatically. Data represent the means±SD of eight replicates. […] Relative fluorescence (%) is normalized to the values obtained with 100 nM 5-HT in the absence of antagonists. […] Relative fluorescence (%) is normalized to the values obtained with 6 nM 5-HT in the absence of antagonists.

[8] = molecular target: T2, Cv5-HT2α; assay: Inhibition of 5-HT-induced Ca2+ signals in Cv5-HT2α-expressing cells; format: cell-based
Procedure: as §1, with “Cv5-HT7. For Cv5-HT2α expression, human embryonic kidney cells (HEK 293; ECACC, Salisbury, UK) were chosen.” for “Cv5-HT7.”
as §3, §4

[9] = Fluo-4 signal, Cv5-HT7-expressing flpTM cells, 100 µM IBMX, read-out: Cv5-HT7 EC50

T1 sequence (I7IA71 entry or part of it): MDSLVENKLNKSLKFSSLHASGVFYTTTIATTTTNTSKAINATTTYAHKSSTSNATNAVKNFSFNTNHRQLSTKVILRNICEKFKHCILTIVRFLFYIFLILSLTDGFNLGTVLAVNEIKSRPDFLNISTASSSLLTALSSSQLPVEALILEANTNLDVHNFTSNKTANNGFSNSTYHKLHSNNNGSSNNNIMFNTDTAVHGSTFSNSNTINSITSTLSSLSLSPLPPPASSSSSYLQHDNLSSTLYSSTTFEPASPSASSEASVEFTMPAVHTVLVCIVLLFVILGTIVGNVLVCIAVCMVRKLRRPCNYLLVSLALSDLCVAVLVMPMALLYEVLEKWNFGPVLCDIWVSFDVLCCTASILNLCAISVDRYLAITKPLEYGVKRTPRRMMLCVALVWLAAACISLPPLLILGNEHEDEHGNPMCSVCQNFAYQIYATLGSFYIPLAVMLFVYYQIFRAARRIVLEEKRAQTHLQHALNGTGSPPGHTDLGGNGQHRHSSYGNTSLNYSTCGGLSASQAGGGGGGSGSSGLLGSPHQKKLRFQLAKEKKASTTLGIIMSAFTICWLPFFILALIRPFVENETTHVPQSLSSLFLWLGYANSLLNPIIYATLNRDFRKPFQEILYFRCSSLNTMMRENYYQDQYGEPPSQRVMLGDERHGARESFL

NCC(O)c1ccc(O)cc1 (centres unmarked) [octopamine]
effect on [cAMP]i in Cv5-HT7-expressing cells [1]: only 5-HT led to a rise of [cAMP]i | effect on [Ca2+]i in Cv5-HT2α-expressing cells [2]: only 5-HT led to an increase of [Ca^2+]i

NCCc1c[nH]c2ccc(O)cc12 [5-HT, 5-hydroxytryptamine]
EC50 [3, 9]: 0.004 µM | EC50 ([3]; Fluo-4 signal, Cv5-HT7-expressing flpTM cells, 100 µM IBMX, read-out: Cv5-HT7 log EC50 (converted)): 0.00407 µM | EC50 [4]: 0.001 to 0.006 µM | EC50 [5]: 0.0028 µM | TEP change of salivary glands ([6]; 30 nM): characteristic biphasic change in the TEP | effect on [cAMP]i in Cv5-HT7-expressing cells [1]: rise of [cAMP]i | effect on [Ca2+]i in Cv5-HT2α-expressing cells [2]: increase of [Ca^2+]i | EC50 ([2]; Cv5-HT2α EC50, Ca2+-dependent Fluo-4 signal): 0.024 µM | EC50 ([2]; Cv5-HT2α log EC50, Ca2+-dependent Fluo-4 signal): 0.024 µM

NCCc1ccc(O)cc1 [tyramine]
effect on [cAMP]i in Cv5-HT7-expressing cells [1]: only 5-HT led to a rise of [cAMP]i | effect on [Ca2+]i in Cv5-HT2α-expressing cells [2]: only 5-HT led to an increase of [Ca^2+]i

CCN(CC)C(=O)N[C@H]1C=C2c3cccc4[nH]cc(c34)C[C@H]2N(C)C1 [R(+)-lisuride]
Cv5-HT7 log EC50 ([3]; Fluo-4 signal, Cv5-HT7-expressing flpTM cells, 100 µM IBMX): −8.75±0.05 | EC50 [3, 9]: 0.002 µM | efficacy at Cv5-HT7 compared to 5-HT ([3]; highest agonist concentrations, normalized to 5-HT maximum): very low efficacy | TEP change of salivary glands ([6]; 30 nM): irreversible positive-going TEP change | negative TEP phase ([6]; 0.03-0.3 µM): - | positive TEP phase ([6]; 0.03-0.3 µM): ++ | reversibility ([6]; 0.03-0.3 µM): no (within 20 min) | Cv5-HT2α EC50 [2]: no effect | Cv5-HT2α log EC50 [2]: no effect

NCCc1ccc(O)c(O)c1 [dopamine]
effect on [cAMP]i in Cv5-HT7-expressing cells [1]: only 5-HT led to a rise of [cAMP]i | effect on [Ca2+]i in Cv5-HT2α-expressing cells [2]: only 5-HT led to an increase of [Ca^2+]i

CC[C@@H](CO)NC(=O)[C@@H]1C=C2c3cccc4c3c(cn4C)C[C@H]2N(C)C1 [methysergide]
EC50 ([3]; Cv5-HT7 EC50, Fluo-4 signal, Cv5-HT7-expressing flpTM cells, 100 µM IBMX): 0.77 µM | EC50 ([3]; Cv5-HT7 log EC50, Fluo-4 signal, Cv5-HT7-expressing flpTM cells, 100 µM IBMX): 0.776 µM | Cv5-HT7 IC50 [7]: agonistic effect | Cv5-HT7 log IC50 [7]: agonistic effect | TEP change of salivary glands ([6]; 3 µM): complex biphasic TEP responses | negative TEP phase ([6]; 3 µM): + | reversibility ([6]; 3 µM): yes | IC50 ([8]; Cv5-HT2α IC50, in the presence of 100 nM 5-HT): 20 µM | IC50 ([8]; Cv5-HT2α log IC50, in the presence of 100 nM 5-HT): 19.5 µM | Cv5-HT2α EC50 [2]: no effect | Cv5-HT2α log EC50 [2]: no effect
